The melting point is the temperature, or range, at which the solid turns liquid.

SMILES strings stand for the structures.

The text below walks through data of a melting point compilation (Tetko et al.; mined from patent text by program, amines drawn as free bases though some values may be those of a salt).

As for `Cc1ccc(C2COc3c(ccc(O)c3O)C2)cc1` (centres undefined), the melting point is 164 °C.

`O=C(CCC1CCC(=O)N1)Nc1ccncc1` (centres undefined): the melting point fell in the range of 187 to 188 °C. With `O=C1C(=O)N(C(c2ccccc2)c2ccccc2)c2cc(F)ccc21`, the melting point fell in the range of 167 to 169 °C.

As for `COC(=O)C1=C(C)Nc2[nH]nc(-c3ccccc3)c2C1c1cccc([N+](=O)[O-])c1` (centres undefined), the melting point fell in the range of 240 to 241 °C. With `O=C(O)C=CC(=O)NCCCCCCCCCCCCCCCCCC(=O)O`, the melting point lay within 144 to 148 °C.

In turn, `NC(=O)c1ccc(F)c2c1CC(N(CCCCc1c[nH]c3ccc(F)cc13)CC1CC1)CO2` (centres undefined) gave a melting point of 115 °C. Under `CCOP(=O)(OCC)c1ccc2c(c1)[C@@H](n1ccccc1=O)[C@H](O)C(C)(C)O2` (relative stereo) stands 130 °C. Consider `CS(=O)(=O)c1ccc(-c2cnn(CC(F)(F)F)c(=O)c2N)cc1`, for which the melting point was greater than 260 °C.

Compound `COc1ccc2cc(-c3ccnc(N(C)C)n3)cc(NC3CCN(c4ncnc5[nH]nc(Br)c45)CC3)c2c1` had a melting point of 167 to 172 °C. As to `COc1ccc(CN(C)CCOc2ccc(NC(=O)c3cccc4c(=O)cc(-c5ccccc5)[nH]c34)cc2)cc1OC`, the melting point came to 175 °C.

`CCN(CC)C(=O)n1cnc(S(=O)(=O)CC2CCCCCC2)n1` gave a melting point of 46 to 51 °C. In turn, `O=C(Nc1ccc([N+](=O)[O-])cc1)c1ccc(Nc2ccncc2)cc1` yielded a melting point of 298 to 302 °C. In turn, `OCc1nc2cnc3ccccc3c2n1Cc1ccccc1` registered a melting point of 211 to 213 °C. The compound `NC(=O)c1ccc2c(c1-c1c(C(N)=O)ccc3c1OCO3)OCO2` came in with a melting point of 249 to 250 °C. For `CNC1CN(c2c(F)cc3c(=O)c(C(=O)O)cn(C4CC4)c3c2F)C1`, the melting point lay in the range of 270 to 272 °C. The compound `COc1ccc(Cn2nnnc2C2N3C(=O)C(NC(c4ccccc4)(c4ccccc4)c4ccccc4)C3SC2(C)C)cc1` (centres undefined) came in with a melting point of 178 to 182 °C. Under `CCCCn1nnc(-c2ccc(C(=O)NCC3CCCC3(C)C)cc2)n1` (centres undefined) stands 121 to 123 °C; under `CC(C)(C)c1cc(CCc2ccccc2NC(=O)N2CCN(Cc3ccccc3)CC2)cc(C(C)(C)C)c1O`, 70 to 72 °C; under `Cn1nc(N)c(C(N)=O)c1N`, 213 to 215 °C. With `COc1ccc(C(=O)O)cc1C1(C)CCCCC1`, the melting point was 199 °C. `COC(=O)CCC(C)C1CCC2C3C(O)CC4CC(NC(=O)CNC(=O)OC(C)(C)C)CCC4(C)C3CC(O)C12C` (centres undefined) yielded a melting point of 110 to 114 °C. In turn, `CN(C)S(=O)(=O)n1cc(S(=O)(=O)N2CCc3ccccc3C2)nc1C#N` registered a melting point of 143 to 144 °C. In the case of `CCN(CC)c1nc(Cl)nc(Cl)n1`, the melting point was 77 to 79 °C. Take `OCCOc1cccc(-c2n[nH]c3c2Cc2ccccc2-3)c1`: the melting point lay in the range of 203 to 205 °C. `CCc1ccc(CCOc2cccc(NC3SC(=O)NC3=O)c2)nc1` (centres undefined) came in with a melting point of 140 to 142 °C. With `O=Cc1ccc(-c2c(-c3nn[nH]n3)[nH]c3ccccc23)cc1`, the melting point was 210 to 212 °C. Turning to `COc1ccc(C=O)c(Oc2ccc(Cl)cc2[N+](=O)[O-])c1`, the melting point lay within 130 to 131 °C. Under `COc1ccc(C(=O)C2=C(O)C(=O)N(c3nnc(C(C)C)s3)C2c2ccc(C(C)(C)C)cc2)cc1` (centres undefined) stands 257 °C; under `O=C(Nc1ccccc1)c1ccc([N+](=O)[O-])cc1`, 90 to 93 °C; under `C#CCOc1ncc(F)cc1OC`, 67 to 69 °C. With `N#Cc1ccc(C=Cc2ccc(N(CCO)CCO)cc2)cc1` the figure was 197 °C; with `Cc1cn(C2C=CC(CO)O2)c(=O)[nH]c1=S` (centres undefined), 117 to 118 °C; with `COc1ccc(C=C(C(=O)C2CC2)C(=O)C2CC2)cc1`, 60.5 to 61.5 °C.

As for `COc1cc2ncnc(N3CCCN(C(=O)Nc4ccc([N+](=O)[O-])cc4)CC3)c2cc1OC`, the melting point fell in the range of 243 to 244 °C.

Compound `CCOC(=O)c1[nH]c2ccc(C)cc2c1Sc1ccc(Cl)cc1` displayed a melting point of 158 to 160 °C.

Turning to `CCOc1ccn2nc(S(=O)(=O)Cl)nc2n1`, the melting point was in the range of 91 to 96 °C. Consider `CCOc1ncnc(OCC)c1NC(N)=S`, for which the melting point was 212 °C. In turn, `N#Cc1ccc2oc(CCc3cc4cc(C#N)ccc4o3)cc2c1` came in with a melting point of 243 to 244 °C. Regarding `NC(=O)CN1C(=O)COc2cc(F)c([N+](=O)[O-])cc21`, the melting point fell in the range of 220 to 226 °C.

The compound `CC(=O)Nc1cc(N)cc([N+](=O)[O-])c1` displayed a melting point of 204 to 205 °C. In the case of `CC12CCCCC1CCC1C2CCC2(C)C(NCc3ccccc3)CCC12` (centres undefined), the melting point was in the range of 85.5 to 87.5 °C. With `Brc1ccc(N2CCC3(CCNCC3)CC2)nc1` the figure was 103 to 105 °C; with `CC(C)(SC(=S)c1ccccc1)c1ccc(Cl)cc1`, 77 to 78 °C; with `Cc1c(Cl)cc(-c2ccc(=O)[nH]n2)cc1Br`, 247 to 250 °C.

The compound `CC(C)(C)c1cccc(S(=O)(=O)Nc2cc(C(F)(F)F)ccc2I)c1` gave a melting point of 134 °C. `CCOC(=O)Cc1csc(NS(=O)(=O)c2ccccc2)n1` registered a melting point of 129 to 130 °C.

As to `Cc1cc2c(cc1C)OCC(NNc1ncnc3c1ncn3C1OC(CO)C(O)C1O)C2` (centres undefined), the melting point lay within 170 to 172 °C. In turn, `O=C(Nc1ccc(Oc2ccnc(NCC3CC3)n2)c2ccccc12)c1cc(F)cc(N2CCOCC2)c1` gave a melting point of 116 to 117 °C.

`CCC1(CCOC2CCCCO2)C(=O)N2CC=CC(C(=O)OC)N2C1=O` (centres undefined) yielded a melting point of 96 to 97 °C. `CC(C)(C)OC(=O)N1CCCC[C@@H]1C(=O)c1ccc(Br)cc1` yielded a melting point of 124 to 125 °C. `NS(=O)(=O)c1ccccc1OC(Cl)=CCl` showed a melting point of 147 to 149 °C. In turn, `CCNC1CC=C(c2c[nH]c3ccc([N+](=O)[O-])cc23)CC1` (centres undefined) returned a melting point of 177 to 179 °C. As to `COc1cc2c(cc1Cl)CC(C)=NN=C2c1ccc(N)cc1`, the melting point was in the range of 198 to 200 °C. Regarding `CCNC(=O)N=C(NC(=O)Nc1ccccc1C)SC`, the melting point lay within 152 to 153 °C. `COc1ccc(-c2cc3c(Nc4cccc(Cl)c4)ncnc3[nH]2)cc1` came in with a melting point of 294 to 295 °C. For `N#CN1C2CCC1CC(c1n[nH]c3cc(F)ccc13)C2` (centres undefined), the melting point lay in the range of 182 to 184 °C. For `O=C(O)Cc1sccc1NC(=O)C(=O)NC(=O)c1ccco1`, the melting point was determined as 169 °C. `CCCOC1CC2(C)C(CCC3C2CCC2(C)C(C(=O)CSCCCO)CCC32)CC1O` (centres undefined) returned a melting point of 133 to 136 °C. `O=c1c2ccccc2sc2cccc(Oc3cc(Cl)cc(Cl)c3)c12` gave a melting point of 207 to 213 °C. Consider `CN1CCC(c2c[nH]c3ccc(/C=C/S(N)(=O)=O)cc23)CC1`, for which the melting point lay in the range of 208 to 209 °C. Regarding `CC1(C)N=C(n2ccc(O)cc2=O)c2cc(Br)ccc2O1`, the melting point was in the range of 171 to 172 °C. With `CCc1nn(-c2c(Cl)cc(C(F)(F)F)cc2Cl)c(CC)c1Cc1c(OC)ccc2ccccc12` the figure was 96 to 98 °C; with `CC(=O)OC1OCC[C@@H]1NC(=O)[C@@H](N)CC(C)C` (some centres undefined), 75 to 80 °C; with `CCCc1c(OCc2ccc(C(=O)O)cc2OC)ccc(C(C)=O)c1O`, 248 to 250 °C.
